Tests used:
Adenosine receptor A1 = molecular target: T1, Adenosine receptor A1 (Rattus norvegicus, UniProt P25099); test: Tested for inhibition of adenosine A1 receptor binding to rat brain
T1 sequence (P25099 whole entry): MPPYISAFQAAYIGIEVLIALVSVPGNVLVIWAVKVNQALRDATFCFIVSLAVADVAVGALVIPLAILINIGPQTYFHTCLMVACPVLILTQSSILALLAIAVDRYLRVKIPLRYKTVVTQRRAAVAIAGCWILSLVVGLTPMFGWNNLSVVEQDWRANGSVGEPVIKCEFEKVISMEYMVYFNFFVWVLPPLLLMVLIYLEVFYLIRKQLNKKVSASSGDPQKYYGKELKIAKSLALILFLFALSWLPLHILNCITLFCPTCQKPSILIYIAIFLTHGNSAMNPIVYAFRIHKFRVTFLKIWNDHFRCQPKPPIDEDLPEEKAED

Cavia porcellus [1] = species: Cavia porcellus; test: Tested for agonistic potency to inhibit stimulated cAMP accumulation in isolated guinea pig heart; format: functional
Cavia porcellus [2] = species: Cavia porcellus; test: Tested for agonistic potency to inhibit contractile force in isolated guinea pig atria; format: functional
[3] = Partition coefficient (logP); format: physicochemical; settings: octanol/water
Adenosine A2 receptor = Adenosine A2 receptor (Rattus norvegicus, UniProt P29276+P30543); test: Tested for inhibition of adenosine A2 receptor binding to rat brain

Compound	Ki (Adenosine receptor A1)	IC50 (Cavia porcellus [1])	IC50 (Cavia porcellus [2])	logP [3]	Ki (Adenosine A2 receptor)
OC[C@H]1O[C@@H](n2cnc3c(NN4CCC(Oc5ccccc5)CC4)nc(Cl)nc32)[C@H](O)[C@@H]1O	1.4 nM	0.03 nM	190 nM	2.05	1100 nM
CN1CCN(Nc2nc(Cl)nc3c2ncn3[C@@H]2O[C@H](CO)[C@@H](O)[C@H]2O)CC1	184 nM	–	–	0.11	> 30000 nM
OC[C@H]1O[C@@H](n2cnc3c(NN4CCOCC4)nc(Cl)nc32)[C@H](O)[C@@H]1O	13.3 nM	–	–	0.11	1040 nM
O=S(=O)(c1ccccc1)C1CCN(Nc2nc(Cl)nc3c2ncn3[C@@H]2O[C@H](CO)[C@@H](O)[C@H]2O)CC1	17 nM	0.7 nM	320 nM	–	220 nM
OC[C@H]1O[C@@H](n2cnc3c(NN4CCCCC4c4ccccc4)nc(Cl)nc32)[C@H](O)[C@@H]1O (stereo partly drawn)	34 nM	–	–	2.25	17 nM
OC[C@H]1O[C@@H](n2cnc3c(NN4CCN(c5ccccc5)CC4)nc(Cl)nc32)[C@H](O)[C@@H]1O	55 nM	–	–	1.42	5571 nM
OC[C@H]1O[C@@H](n2cnc3c(NN4CCCCC4)nc(F)nc32)[C@H](O)[C@@H]1O	3.6 nM	3.8 nM	1290 nM	0.35	1050 nM
OC[C@H]1O[C@@H](n2cnc3c(NN4CC=C(c5ccccc5)CC4)nc(Cl)nc32)[C@H](O)[C@@H]1O	6.1 nM	1.1 nM	2900 nM	2.28	638 nM
OC[C@H]1O[C@@H](n2cnc3c(NC4CCCC4)nc(Cl)nc32)[C@H](O)[C@@H]1O	–	–	–	2.07	–
OC[C@H]1O[C@@H](n2cnc3c(NN4CCCC4)nc(I)nc32)[C@H](O)[C@@H]1O	13000 nM	–	–	1.42	57000 nM
OC[C@H]1O[C@@H](n2cnc3c(NN4CCCC(Oc5ccccc5)C4)nc(Cl)nc32)[C@H](O)[C@@H]1O (mixture of isomers)	15 nM	4.8 nM	4500 nM	1.88	1733 nM
CSc1nc(NN2CCCCC2)c2ncn([C@@H]3O[C@H](CO)[C@@H](O)[C@H]3O)c2n1	390 nM	–	–	0.89	2825 nM
OC[C@H]1O[C@@H](n2cnc3c(NN4CCCC(O)C4)nc(Cl)nc32)[C@H](O)[C@@H]1O (mixture of isomers)	11 nM	4.6 nM	470 nM	-0.82	720 nM
OC[C@H]1O[C@@H](n2cnc3c(NC4CCCC4)ncnc32)[C@H](O)[C@@H]1O [N6-CYCLOPENTYLADENOSINE]	–	0.6 nM	420 nM	0.72	321 nM
COC[C@@H]1CCCN1Nc1nc(Cl)nc2c1ncn2[C@@H]1O[C@H](CO)[C@@H](O)[C@H]1O	9.9 nM	–	–	0.32	564 nM
CCCOc1nc(NN2CCCCC2)c2ncn([C@@H]3O[C@H](CO)[C@@H](O)[C@H]3O)c2n1	400 nM	–	–	–	2700 nM
OC[C@H]1O[C@@H](n2cnc3c(NN4CCC(Sc5ccccc5)CC4)nc(Cl)nc32)[C@H](O)[C@@H]1O	0.9 nM	0.3 nM	640 nM	2.62	470 nM
OC[C@H]1O[C@@H](n2cnc3c(NN4CCCCC4)nc(Br)nc32)[C@H](O)[C@@H]1O	9.3 nM	–	–	0.89	1520 nM
OC[C@H]1O[C@@H](n2cnc3c(NN4CCCC(Sc5ccccc5)C4)nc(Cl)nc32)[C@H](O)[C@@H]1O (mixture of isomers)	13 nM	–	–	2.89	1380 nM
OC[C@H]1O[C@@H](n2cnc3c(NN4CCCCCC4)nc(Cl)nc32)[C@H](O)[C@@H]1O	9.3 nM	–	–	1.42	1130 nM
OC[C@H]1O[C@@H](n2cnc3c(NN4CCCCC4)nc(Cl)nc32)[C@H](O)[C@@H]1O	4.2 nM	2.1 nM	580 nM	0.79	1485 nM
Nc1nc(NN2CCCCC2)c2ncn([C@@H]3O[C@H](CO)[C@@H](O)[C@H]3O)c2n1	30 nM	–	–	-0.55	3320 nM
CC1CCCC(C)N1Nc1nc(Cl)nc2c1ncn2[C@@H]1O[C@H](CO)[C@@H](O)[C@H]1O (stereo partly drawn)	4 nM	–	–	1.38	33 nM
OC[C@H]1O[C@@H](n2cnc3c(NN4CCCCC4)ncnc32)[C@H](O)[C@@H]1O	> 3000 nM	–	–	1.28	> 10000 nM
COC[C@H]1CCCN1Nc1nc(Cl)nc2c1ncn2[C@@H]1O[C@H](CO)[C@@H](O)[C@H]1O	10.9 nM	–	–	0.32	459 nM
OC[C@H]1O[C@@H](n2cnc3c(NN4CCC(c5ccccc5)CC4)nc(Cl)nc32)[C@H](O)[C@@H]1O	11 nM	2.5 nM	320 nM	2.36	1200 nM
